Values quoted from earlier work as cited in patent US20200147085A1, “COMPOSITIONS AND METHODS FOR TREATMENT OF PSYCHIATRIC DISORDERS” (priority 2007, published 2020).

Experiments:
[1] = parenterally administered SAM
healthy volunteers = conditions: daily iv infusion for 7 days; not supine
[2] = healthy controls, single oral dose of 400 mg of SAM
[3] = test system: chronic renal failure patients; conditions: 4 grams daily, with 5 mg folate and 50 mg pyridoxine daily; not fasting levels
[4] = rats, intraperitoneal
schizophrenic patients = conditions: 10-20 grams/day

C[S+](CC[C@H](N)C(=O)O)C[C@H]1O[C@@H](n2cnc3c(N)ncnc32)[C@H](O)[C@@H]1O (stereo partly drawn) [SAM, S-adenosylmethionine]
SAM levels in cerebral spinal fluid [1]: about 130 % of controls
decrease in standing heart rate (healthy volunteers): 6 beats/minute
half-life of SAM [2]: 1.7 ± 0.3 h

C[N+](C)(C)CC(=O)[O-] [betaine, trimethylglycine]
decrease of post-methionine loading homocysteine levels [3]: 18%

CSCC[C@H](N)C(=O)O [methionine, L-methionine]
SAM in brain [4]: about 130 % of controls
schizophrenic patients with worsened psychosis (schizophrenic patients): about 40%
